Laboratory results published in patent US8852928B2, “LexA-based chemical-inducible gene expression system for use in transgenic animals” (Temasek Life Sciences Laboratory Limited, priority 2007, dated 2014).

Test system: zebrafish development
Test: Side effects on development of LexPR transgenic fish upon induction
Assay type: in vivo
Description: FIG. 13b: Control wild type fish. FIG. 13c: Transgenic F2 embryos harboring the LexPR driver-reporter cassette described in this manuscript.

With `CC#C[C@]1(O)CC[C@H]2[C@@H]3CCC4=CC(=O)CCC4=C3[C@@H](c3ccc(N(C)C)cc3)C[C@@]21C` [mifepristone] the “Effect on embryo development and cell morphology, LexPR driver-reporter F2 embryos” value (1 μM in the growth water 10 hpf onwards) was “does not affect embryo development and morphology of the EGFP-positive cells” and the “Side effects on zebrafish development” value (10 μM at 1-cell stage, LexPR system) was “did not observe obvious side effects”.
